From ChEMBL document CHEMBL1201862, “PubChem BioAssay data set” (2004) come the findings set out here.

A word on the AC50: it is the concentration at which the activity in the assay is half-maximal. By Ki is commonly meant the equilibrium dissociation constant of an inhibitor or competing ligand from its target. Usually EC50 stands for the midpoint of the concentration-response curve.

Activity calls are given as the source filed them. Some results are limits rather than exact numbers.

Assay [1] deals with Adenosylmethionine-8-amino-7-oxononanoate aminotransferase (Mycobacterium tuberculosis, UniProt P9WQ81). The assay is described as follows: Mycobacterium tuberculosis BioA enzyme inhibitor Measured in Biochemical System Using Plate Reader - 2163-02_Inhibitor_Dose_CherryPick_Activity. Format: functional, Mycobacterium tuberculosis UT205.
Assay [2] concerns the target T1, Sentrin-specific protease 8 (Homo sapiens, UniProt Q96LD8).
T1 sequence (Q96LD8 whole entry): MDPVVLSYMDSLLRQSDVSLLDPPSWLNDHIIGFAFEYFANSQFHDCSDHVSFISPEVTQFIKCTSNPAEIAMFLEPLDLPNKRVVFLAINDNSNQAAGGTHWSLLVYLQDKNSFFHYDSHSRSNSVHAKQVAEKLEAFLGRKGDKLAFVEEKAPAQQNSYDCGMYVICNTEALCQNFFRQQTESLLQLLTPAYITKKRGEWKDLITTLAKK
The assay is described as follows: inhibition of human SENP8 cleavage activity – biochemical, luminescence, SAR follow-up (AID 504501). Format: functional.

In assay [3] the target is T2, Sentrin-specific protease 6 (Homo sapiens, UniProt Q9GZR1).
T2 sequence (Q9GZR1 whole entry): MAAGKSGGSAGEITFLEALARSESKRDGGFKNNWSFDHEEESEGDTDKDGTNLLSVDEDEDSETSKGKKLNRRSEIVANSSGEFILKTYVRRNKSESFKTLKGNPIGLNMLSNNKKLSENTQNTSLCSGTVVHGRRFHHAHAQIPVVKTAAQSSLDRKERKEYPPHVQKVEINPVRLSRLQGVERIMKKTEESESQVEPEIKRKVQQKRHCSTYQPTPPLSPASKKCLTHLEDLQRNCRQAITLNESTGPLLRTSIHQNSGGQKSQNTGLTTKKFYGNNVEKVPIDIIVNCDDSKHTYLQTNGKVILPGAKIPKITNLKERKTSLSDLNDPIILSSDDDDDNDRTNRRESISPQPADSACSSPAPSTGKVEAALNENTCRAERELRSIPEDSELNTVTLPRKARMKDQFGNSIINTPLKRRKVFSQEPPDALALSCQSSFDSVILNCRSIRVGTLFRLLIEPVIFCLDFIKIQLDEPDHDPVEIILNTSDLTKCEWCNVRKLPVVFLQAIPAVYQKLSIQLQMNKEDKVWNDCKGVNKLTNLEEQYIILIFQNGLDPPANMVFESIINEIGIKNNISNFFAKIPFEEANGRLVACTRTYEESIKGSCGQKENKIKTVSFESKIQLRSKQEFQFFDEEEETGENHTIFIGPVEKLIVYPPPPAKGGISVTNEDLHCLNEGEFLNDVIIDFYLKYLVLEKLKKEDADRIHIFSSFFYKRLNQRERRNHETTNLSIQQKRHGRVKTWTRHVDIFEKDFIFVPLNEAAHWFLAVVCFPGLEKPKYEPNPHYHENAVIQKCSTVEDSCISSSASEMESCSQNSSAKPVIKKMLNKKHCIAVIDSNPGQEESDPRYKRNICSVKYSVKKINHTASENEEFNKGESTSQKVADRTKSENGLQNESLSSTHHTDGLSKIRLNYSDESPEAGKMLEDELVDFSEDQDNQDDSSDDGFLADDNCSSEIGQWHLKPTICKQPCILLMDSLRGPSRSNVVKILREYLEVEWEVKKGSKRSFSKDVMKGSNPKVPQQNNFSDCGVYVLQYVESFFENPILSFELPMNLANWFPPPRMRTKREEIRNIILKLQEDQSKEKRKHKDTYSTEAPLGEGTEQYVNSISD
The assay can be described thus: SAR Analysis of small molecule inhibitors of Sentrin-specific protease 6 (SENP6) using a Luminescent assay. [Related pubchem assays (depositor defined):AID2582, AID2599]. The format is functional.

Assay [4] has as its target T3, Sentrin-specific protease 7 (Homo sapiens, UniProt Q9BQF6).
T3 sequence (Q9BQF6 whole entry): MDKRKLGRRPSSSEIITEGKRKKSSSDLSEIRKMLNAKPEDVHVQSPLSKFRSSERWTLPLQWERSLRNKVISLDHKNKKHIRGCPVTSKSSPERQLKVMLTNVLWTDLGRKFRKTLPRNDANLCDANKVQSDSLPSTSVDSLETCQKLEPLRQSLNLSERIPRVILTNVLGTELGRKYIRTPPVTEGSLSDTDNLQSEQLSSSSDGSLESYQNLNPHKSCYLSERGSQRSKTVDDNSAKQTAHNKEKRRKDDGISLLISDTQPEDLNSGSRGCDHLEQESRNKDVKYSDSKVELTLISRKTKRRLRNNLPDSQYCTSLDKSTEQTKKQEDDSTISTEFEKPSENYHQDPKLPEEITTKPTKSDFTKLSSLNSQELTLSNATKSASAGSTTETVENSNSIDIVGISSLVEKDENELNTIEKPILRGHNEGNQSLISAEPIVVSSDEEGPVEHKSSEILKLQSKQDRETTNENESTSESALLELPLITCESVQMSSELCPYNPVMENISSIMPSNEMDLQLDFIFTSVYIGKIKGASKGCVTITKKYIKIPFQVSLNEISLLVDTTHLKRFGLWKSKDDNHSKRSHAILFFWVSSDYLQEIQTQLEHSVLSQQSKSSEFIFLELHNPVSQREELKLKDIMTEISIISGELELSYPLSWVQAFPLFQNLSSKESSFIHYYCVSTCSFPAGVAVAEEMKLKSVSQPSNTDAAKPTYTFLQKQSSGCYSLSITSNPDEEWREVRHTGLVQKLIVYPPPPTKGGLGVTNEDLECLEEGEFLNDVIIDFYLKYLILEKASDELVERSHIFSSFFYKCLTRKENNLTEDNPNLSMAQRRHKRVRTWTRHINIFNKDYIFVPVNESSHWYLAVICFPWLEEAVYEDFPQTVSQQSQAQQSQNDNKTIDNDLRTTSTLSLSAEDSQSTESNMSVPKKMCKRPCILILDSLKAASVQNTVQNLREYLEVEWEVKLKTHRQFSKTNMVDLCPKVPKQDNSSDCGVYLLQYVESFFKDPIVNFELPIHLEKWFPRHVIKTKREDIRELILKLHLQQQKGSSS
The assay is described as follows: inhibition of human SENP7 cleavage activity – biochemical, luminescence, SAR follow-up (AID 504497). The format is functional.

Another assay has as its target T4, Caspase-3 (Homo sapiens, UniProt P42574).
T4 sequence (P42574 whole entry): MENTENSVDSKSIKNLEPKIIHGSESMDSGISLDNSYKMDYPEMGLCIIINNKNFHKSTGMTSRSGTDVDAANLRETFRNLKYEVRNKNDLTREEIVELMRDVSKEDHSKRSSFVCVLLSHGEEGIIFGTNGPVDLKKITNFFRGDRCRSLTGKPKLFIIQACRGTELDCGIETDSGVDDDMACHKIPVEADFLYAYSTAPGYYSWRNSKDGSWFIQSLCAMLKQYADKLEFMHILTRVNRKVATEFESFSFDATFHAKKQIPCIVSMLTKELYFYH
The assay is described as follows: SAR Analysis of small molecule inhibitors of Sentrin-specific proteases (SENPs) using a Caspase-3 Selectivity assay. [Related pubchem assays (depositor defined):AID2540, AID2599, AID434973, AID489001]. Format: functional.

The target in assay [5] is cAMP-dependent protein kinase catalytic subunit alpha (Homo sapiens, UniProt P17612). Format: functional.
The target in assay [6] is Homeodomain-interacting protein kinase 2 (Homo sapiens, UniProt Q9H2X6). The format is functional.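 Note: measured within a kinome-wide kinase profiling panel, HIPK2 being one panel member.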
Assay [7] has as its target Dual specificity protein kinase CLK4 (Homo sapiens, UniProt Q9HAZ1). Format: functional.
Assay [8] addresses Serine/threonine-protein kinase pim-1 (Homo sapiens, UniProt P11309). Format: functional.
The target of assay [9] is Cell division cycle 7-related protein kinase (Homo sapiens, UniProt O00311). Format: functional.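 Note: value obtained from a kinome-wide kinase panel.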
Assay [10] deals with T5, Interleukin-1 receptor-associated kinase 4 (Homo sapiens, UniProt Q9NWZ3).
T5 sequence (Q9NWZ3 whole entry): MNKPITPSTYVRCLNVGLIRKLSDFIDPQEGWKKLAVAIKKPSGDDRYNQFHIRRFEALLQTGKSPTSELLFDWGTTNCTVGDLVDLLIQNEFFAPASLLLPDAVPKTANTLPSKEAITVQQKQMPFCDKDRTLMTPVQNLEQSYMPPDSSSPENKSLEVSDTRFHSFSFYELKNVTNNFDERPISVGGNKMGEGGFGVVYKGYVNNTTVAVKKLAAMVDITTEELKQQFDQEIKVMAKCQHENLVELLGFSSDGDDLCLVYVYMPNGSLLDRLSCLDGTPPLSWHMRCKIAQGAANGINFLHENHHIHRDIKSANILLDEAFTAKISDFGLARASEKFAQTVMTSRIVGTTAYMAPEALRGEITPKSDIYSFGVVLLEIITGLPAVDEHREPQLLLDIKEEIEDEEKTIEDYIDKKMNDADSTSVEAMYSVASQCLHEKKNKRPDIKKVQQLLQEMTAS
The format is functional.

The target in assay [11] is Glycogen synthase kinase-3 beta (Homo sapiens, UniProt P49841). The format is functional.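 Note: value comes from a broad kinome profiling panel, with GSK3B as the panel member.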
The target of assay [12] is T6, Endoribonuclease toxin MazF (Escherichia coli K-12, UniProt P0AE70).
T6 sequence (P0AE70 whole entry): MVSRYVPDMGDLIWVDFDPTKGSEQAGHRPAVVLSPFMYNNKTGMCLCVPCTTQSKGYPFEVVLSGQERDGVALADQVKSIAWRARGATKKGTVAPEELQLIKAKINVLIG
The assay is described as follows: substrate-only fluorescence increase artefacts – biochemical, single-stranded RNase substrate, counter-screen for MazEF activator project, dose response (AID 588502). Format: functional.

The target of assay [13] is T6, Endoribonuclease toxin MazF. The assay is described as follows: activation of MazEF endoribonuclease cleavage – biochemical, fluorescence, single-stranded RNA substrate, uHTS hits, dose response (AID 588481). The format is functional.
For another assay, the target named is Protein Wnt-3a (Mus musculus, UniProt P27467). The assay is described as follows: antagonism of Wnt3a pathway luciferase reporter – Wnt-LIGHT cells, luminescence, selectivity assay for Gli-SUFU antagonist project, dose response (AID 651570).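 Note: Wnt-LIGHT reporter cells stimulated with conditioned medium from Wnt3a-producing cells.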 Format: functional. Particulars: read-out: IC50_Mean. In general terms: A reporter such as luciferase makes a cellular process visible.

In a further assay the target is T7, Cytochrome P450 1A2 (Homo sapiens, UniProt P05177).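 Note: PubChem cytochrome P450 panel assay, CYP1A2 panel member.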
T7 sequence (P05177 whole entry): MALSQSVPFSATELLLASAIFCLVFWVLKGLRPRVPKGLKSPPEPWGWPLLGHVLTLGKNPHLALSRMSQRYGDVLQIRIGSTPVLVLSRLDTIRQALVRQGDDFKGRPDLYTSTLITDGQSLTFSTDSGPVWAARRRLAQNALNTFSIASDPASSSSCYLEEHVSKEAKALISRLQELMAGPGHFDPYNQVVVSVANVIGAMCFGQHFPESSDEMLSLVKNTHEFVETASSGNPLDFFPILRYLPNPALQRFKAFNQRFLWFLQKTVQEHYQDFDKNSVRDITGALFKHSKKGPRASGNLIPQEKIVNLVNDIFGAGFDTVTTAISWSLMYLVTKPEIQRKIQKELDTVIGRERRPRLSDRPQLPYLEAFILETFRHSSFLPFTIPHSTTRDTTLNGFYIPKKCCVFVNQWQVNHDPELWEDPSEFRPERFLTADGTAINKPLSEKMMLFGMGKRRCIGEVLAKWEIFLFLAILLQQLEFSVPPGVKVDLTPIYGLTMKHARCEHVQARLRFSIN

Another assay addresses Cytochrome P450 2D6 (Homo sapiens, UniProt P10635).

Chain of Protein Wnt-3a (P27467 whole entry): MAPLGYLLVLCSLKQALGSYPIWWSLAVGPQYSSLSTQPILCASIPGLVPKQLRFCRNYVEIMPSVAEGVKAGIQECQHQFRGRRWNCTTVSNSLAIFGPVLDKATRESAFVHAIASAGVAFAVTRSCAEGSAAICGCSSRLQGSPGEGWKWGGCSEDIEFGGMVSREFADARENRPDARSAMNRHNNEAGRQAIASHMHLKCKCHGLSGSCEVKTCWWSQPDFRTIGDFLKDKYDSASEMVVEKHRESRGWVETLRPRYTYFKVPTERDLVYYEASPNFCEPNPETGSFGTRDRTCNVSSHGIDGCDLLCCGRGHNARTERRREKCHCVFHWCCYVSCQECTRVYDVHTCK
Chain of Adenosylmethionine-8-amino-7-oxononanoate aminotransferase (P9WQ81 whole entry): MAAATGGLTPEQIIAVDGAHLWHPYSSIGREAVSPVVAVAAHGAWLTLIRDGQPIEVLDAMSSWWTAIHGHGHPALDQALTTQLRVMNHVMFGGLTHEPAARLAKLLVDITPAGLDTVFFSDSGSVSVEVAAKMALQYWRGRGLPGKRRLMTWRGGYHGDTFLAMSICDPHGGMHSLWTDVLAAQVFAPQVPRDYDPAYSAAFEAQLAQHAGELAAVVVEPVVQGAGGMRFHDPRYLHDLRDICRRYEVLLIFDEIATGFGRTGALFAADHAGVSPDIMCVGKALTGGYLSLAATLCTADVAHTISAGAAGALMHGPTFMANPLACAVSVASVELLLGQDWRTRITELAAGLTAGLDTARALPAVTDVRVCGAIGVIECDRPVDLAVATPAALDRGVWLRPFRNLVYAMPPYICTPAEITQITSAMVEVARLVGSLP
Chain of Glycogen synthase kinase-3 beta (P49841 whole entry): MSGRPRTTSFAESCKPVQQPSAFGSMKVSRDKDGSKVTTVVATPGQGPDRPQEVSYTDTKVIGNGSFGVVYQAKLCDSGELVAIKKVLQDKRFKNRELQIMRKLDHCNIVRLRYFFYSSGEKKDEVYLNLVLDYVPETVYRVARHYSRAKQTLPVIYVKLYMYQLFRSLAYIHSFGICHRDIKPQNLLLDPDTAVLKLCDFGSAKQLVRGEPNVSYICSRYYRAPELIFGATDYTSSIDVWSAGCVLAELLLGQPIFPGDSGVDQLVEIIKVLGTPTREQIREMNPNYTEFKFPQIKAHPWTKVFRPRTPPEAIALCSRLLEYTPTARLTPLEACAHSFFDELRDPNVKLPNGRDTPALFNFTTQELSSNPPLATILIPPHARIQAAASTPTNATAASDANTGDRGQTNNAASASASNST
Chain of Dual specificity protein kinase CLK4 (Q9HAZ1 whole entry): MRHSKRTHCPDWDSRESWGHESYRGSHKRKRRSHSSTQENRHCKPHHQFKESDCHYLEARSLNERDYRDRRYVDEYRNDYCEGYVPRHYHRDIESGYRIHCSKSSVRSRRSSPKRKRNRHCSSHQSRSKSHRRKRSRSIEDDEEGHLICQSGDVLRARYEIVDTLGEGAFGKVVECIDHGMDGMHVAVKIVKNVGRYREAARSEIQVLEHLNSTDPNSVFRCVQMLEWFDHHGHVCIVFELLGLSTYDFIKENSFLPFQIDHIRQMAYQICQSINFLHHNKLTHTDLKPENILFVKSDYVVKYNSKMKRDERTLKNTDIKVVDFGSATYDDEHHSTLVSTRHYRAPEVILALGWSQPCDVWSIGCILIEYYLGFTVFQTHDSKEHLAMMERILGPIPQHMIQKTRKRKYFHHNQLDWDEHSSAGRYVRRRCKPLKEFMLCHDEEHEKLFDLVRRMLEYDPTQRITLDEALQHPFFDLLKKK
Chain of Cell division cycle 7-related protein kinase (O00311 whole entry): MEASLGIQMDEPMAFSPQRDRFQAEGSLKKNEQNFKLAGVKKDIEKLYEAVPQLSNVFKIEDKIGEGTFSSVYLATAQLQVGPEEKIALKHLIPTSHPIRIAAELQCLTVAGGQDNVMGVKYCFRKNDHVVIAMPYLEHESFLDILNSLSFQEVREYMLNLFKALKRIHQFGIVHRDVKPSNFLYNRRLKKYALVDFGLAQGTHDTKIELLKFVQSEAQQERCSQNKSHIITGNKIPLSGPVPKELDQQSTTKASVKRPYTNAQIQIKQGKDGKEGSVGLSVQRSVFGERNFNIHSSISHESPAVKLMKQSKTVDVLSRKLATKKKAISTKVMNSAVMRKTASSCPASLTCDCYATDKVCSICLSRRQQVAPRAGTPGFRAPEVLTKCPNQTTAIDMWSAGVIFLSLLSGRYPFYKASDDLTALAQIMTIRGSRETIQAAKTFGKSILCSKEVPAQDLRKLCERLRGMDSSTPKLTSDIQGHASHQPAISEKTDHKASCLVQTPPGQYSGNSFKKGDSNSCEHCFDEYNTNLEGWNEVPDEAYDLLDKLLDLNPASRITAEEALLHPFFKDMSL
Chain of Serine/threonine-protein kinase pim-1 (P11309 whole entry): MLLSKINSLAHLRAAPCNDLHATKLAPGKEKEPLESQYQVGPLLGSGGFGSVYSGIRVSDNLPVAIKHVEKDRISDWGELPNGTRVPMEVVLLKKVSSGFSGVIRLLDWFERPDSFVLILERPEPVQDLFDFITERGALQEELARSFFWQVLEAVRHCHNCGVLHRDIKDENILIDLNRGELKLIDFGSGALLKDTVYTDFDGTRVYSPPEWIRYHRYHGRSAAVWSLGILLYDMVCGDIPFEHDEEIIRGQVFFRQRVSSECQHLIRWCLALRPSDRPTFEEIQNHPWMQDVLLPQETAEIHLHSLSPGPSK
Chain of Cytochrome P450 2D6 (P10635 whole entry): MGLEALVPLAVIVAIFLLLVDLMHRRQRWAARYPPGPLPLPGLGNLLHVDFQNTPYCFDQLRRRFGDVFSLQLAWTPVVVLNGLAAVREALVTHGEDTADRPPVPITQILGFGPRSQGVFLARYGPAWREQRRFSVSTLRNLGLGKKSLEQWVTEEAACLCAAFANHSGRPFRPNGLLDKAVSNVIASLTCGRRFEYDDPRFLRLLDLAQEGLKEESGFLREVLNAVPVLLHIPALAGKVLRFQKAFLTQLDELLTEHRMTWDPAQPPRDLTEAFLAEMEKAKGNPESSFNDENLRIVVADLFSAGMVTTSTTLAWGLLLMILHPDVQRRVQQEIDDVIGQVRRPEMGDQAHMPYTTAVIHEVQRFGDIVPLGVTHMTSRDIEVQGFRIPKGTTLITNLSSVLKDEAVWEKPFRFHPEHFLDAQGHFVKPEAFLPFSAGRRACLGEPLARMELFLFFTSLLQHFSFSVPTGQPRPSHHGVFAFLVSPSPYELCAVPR
Chain of Homeodomain-interacting protein kinase 2 (Q9H2X6 whole entry): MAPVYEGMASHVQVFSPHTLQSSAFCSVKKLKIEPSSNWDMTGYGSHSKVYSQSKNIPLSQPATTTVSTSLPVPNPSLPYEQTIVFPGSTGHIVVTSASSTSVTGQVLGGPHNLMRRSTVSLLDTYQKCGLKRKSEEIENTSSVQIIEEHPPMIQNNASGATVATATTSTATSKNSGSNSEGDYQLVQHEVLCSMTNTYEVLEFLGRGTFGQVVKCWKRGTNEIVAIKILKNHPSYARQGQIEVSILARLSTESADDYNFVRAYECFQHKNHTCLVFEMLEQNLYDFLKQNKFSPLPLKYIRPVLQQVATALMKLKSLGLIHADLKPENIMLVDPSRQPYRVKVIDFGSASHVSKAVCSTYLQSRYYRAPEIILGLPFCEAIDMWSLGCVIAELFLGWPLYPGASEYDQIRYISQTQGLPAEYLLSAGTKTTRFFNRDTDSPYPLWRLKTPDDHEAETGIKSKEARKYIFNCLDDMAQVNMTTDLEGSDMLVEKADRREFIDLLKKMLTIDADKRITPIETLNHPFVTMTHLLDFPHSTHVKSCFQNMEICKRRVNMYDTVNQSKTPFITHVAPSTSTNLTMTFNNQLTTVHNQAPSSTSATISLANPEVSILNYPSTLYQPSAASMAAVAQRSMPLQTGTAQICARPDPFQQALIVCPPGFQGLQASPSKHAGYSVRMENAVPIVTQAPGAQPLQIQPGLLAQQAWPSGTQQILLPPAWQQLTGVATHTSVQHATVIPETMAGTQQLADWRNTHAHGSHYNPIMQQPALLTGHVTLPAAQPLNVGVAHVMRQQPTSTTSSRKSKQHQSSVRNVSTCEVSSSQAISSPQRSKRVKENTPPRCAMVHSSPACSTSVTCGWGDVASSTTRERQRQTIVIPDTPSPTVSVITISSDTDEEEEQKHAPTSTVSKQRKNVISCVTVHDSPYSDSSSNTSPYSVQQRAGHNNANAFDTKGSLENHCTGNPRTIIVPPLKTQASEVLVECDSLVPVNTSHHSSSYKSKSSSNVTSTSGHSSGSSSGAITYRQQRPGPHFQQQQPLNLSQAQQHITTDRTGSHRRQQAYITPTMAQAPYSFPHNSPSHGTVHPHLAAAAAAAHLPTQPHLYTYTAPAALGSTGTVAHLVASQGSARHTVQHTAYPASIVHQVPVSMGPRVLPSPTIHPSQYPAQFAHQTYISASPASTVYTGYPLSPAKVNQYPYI

Take `C=CCn1c(COc2ccccc2F)nnc1SCCN1C(=O)c2ccccc2C1=O`: the AC50 in assay [1] is 7.95 µM (active).
As to `O=C(Nc1ccc(Oc2ccccc2)cc1)c1ccc2c(c1)OCO2`, the IC50 in assay [2] is 2.2 µM (active); in [3], 1.55 µM (active); in assay [4], 1.06 µM (active); at Caspase-3, 1.99 µM (active).
For `NC(=O)c1ccc(-c2ccnc(N)n2)cc1N1CCCCC1`, the Ki in assay [5] was > 7.94 µM (inactive); in [6] it was > 3.16 µM (inactive); in assay [7] it was 0.00316 µM (active); in assay [8], > 10 µM (inactive); in assay [9], 0.00794 µM (active); in assay [10] it was 5.01 µM (active). Moreover, the Ki in assay [11] was 1 µM (active).
On to `CCCn1c(SCC(=O)Nc2nc(-c3ccc(OC)cc3)cs2)nc2c1c(=O)n(C)c(=O)n2C`, for which the EC50 in assay [12] and in [13] was > 99 µM (inactive) in each case. Moreover, the IC50 at Protein Wnt-3a was 1.32 µM (active).
Turning to `O=C(Nc1ccc(-c2nc3cc(Cl)ccc3o2)cc1)c1ccccc1`, the IC50 (in assay [2]; in assay [3]; in assay [4]; at Caspase-3) was > 99 µM (inactive) each time.
On to `Clc1ccc(N/N=C/c2cn(Cc3ccccc3)c3ccccc23)cc1`, for which the IC50 (in assay [2]; in assay [3]; in assay [4]; at Caspase-3) was > 99 µM (inactive) throughout.
Consider `CCN(CC)S(=O)(=O)c1ccc(C)c(NC(=S)N2CCN(Cc3ccc4c(c3)OCO4)CC2)c1`, for which the IC50 on Protein Wnt-3a was 2.35 µM (active).
Regarding `Cc1nc2nc(SCC(=O)NCc3ccco3)nn2c(C)c1Cc1c(F)cccc1Cl`, the AC50 at Cytochrome P450 1A2 was 20 µM (inconclusive); in assay [1], 1.38 µM (active); on Cytochrome P450 2D6, 28.2 µM (inconclusive).
